{"source": "the supplement of paper PMC10307832", "assay_in_all_cases": "relative viability (nuclei count vs DMSO), 5 days (fraction); higher = more cells survive", "key": {"[1]": {"test_system": "NCI-H1623", "how_it_was_run": "(§1)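 Nuclei were stained with Hoechst during a one-step fixation (final 0.05% Triton X-100, 1% formaldehyde, 1 ug/ml Hoechst) carried out 5 days after dosing, then counted on 4× images. The cells, lung cancer lines in 1536-well plates, had been dosed by pin tool the day after seeding with one drug alone or a fixed anchor-drug dose plus five library-drug doses (not always all listed) in √10 steps. Relative viability is the nuclei count in treated wells divided by that in vehicle wells, and each value is the median of duplicate plates.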"}, "[2]": {"test_system": "RERF-LC-KJ", "how_it_was_run": "as §1"}, "[3]": {"test_system": "NCI-H2126", "how_it_was_run": "as §1"}, "[4]": {"test_system": "NCI-H1993", "how_it_was_run": "as §1"}, "[5]": {"test_system": "NCI-H1648", "how_it_was_run": "as §1"}, "[6]": {"test_system": "ABC-1", "how_it_was_run": "as §1"}, "[7]": {"test_system": "NCI-H2085", "how_it_was_run": "as §1"}, "[8]": {"test_system": "EKVX", "how_it_was_run": "as §1"}, "[9]": {"test_system": "HCC-44", "how_it_was_run": "as §1"}}}
{"molecule": "CC(=O)O[C@@]12CO[C@@H]1C[C@H](O)[C@@]1(C)C(=O)[C@H](O)C3=C(C)[C@@H](OC(=O)[C@H](O)[C@@H](NC(=O)OC(C)(C)C)c4ccccc4)C[C@@](O)([C@@H](OC(=O)c4ccccc4)[C@H]21)C3(C)C", "note": "[Docetaxel] + COc1cccc2cc(-c3nc([C@H]4CC[C@H](C(=O)O)CC4)n4ncnc(N)c34)[nH]c12 [OSI-027] (partner 0.5 µM)", "values": [{"measurement": "relative viability", "setting": "[1]; first compound 0.0002 µM", "result": 0.391}, {"measurement": "relative viability", "setting": "[1]; first compound 0.000632 µM", "result": 0.438}, {"measurement": "relative viability", "setting": "[1]; first compound 0.002 µM", "result": 0.339}, {"measurement": "relative viability", "setting": "[1]; first compound 0.006325 µM", "result": 0.335}, {"measurement": "relative viability", "setting": "[1]; first compound 0.02 µM", "result": 0.298}, {"measurement": "relative viability", "setting": "[2]; first compound 0.0002 µM", "result": 0.564}, {"measurement": "relative viability", "setting": "[2]; first compound 0.000632 µM", "result": 0.543}, {"measurement": "relative viability", "setting": "[2]; first compound 0.002 µM", "result": 0.297}, {"measurement": "relative viability", "setting": "[2]; first compound 0.006325 µM", "result": 0.248}, {"measurement": "relative viability", "setting": "[2]; first compound 0.02 µM", "result": 0.161}, {"measurement": "relative viability", "setting": "[3]; first compound 0.0002 µM", "result": 0.742}, {"measurement": "relative viability", "setting": "[3]; first compound 0.000632 µM", "result": 0.622}, {"measurement": "relative viability", "setting": "[3]; first compound 0.002 µM", "result": 0.281}, {"measurement": "relative viability", "setting": "[3]; first compound 0.006325 µM", "result": 0.297}, {"measurement": "relative viability", "setting": "[3]; first compound 0.02 µM", "result": 0.221}, {"measurement": "relative viability", "setting": "[4]; first compound 0.0002 µM", "result": 0.556}, {"measurement": "relative viability", "setting": "[4]; first compound 0.000632 µM", "result": 0.616}, {"measurement": "relative viability", "setting": "[4]; first compound 0.002 µM", "result": 0.6}, {"measurement": "relative viability", "setting": "[4]; first compound 0.006325 µM", "result": 0.501}, {"measurement": "relative viability", "setting": "[4]; first compound 0.02 µM", "result": 0.414}, {"measurement": "relative viability", "setting": "[5]; first compound 0.0002 µM", "result": 0.28}, {"measurement": "relative viability", "setting": "[5]; first compound 0.000632 µM", "result": 0.267}, {"measurement": "relative viability", "setting": "[5]; first compound 0.002 µM", "result": 0.232}, {"measurement": "relative viability", "setting": "[5]; first compound 0.006325 µM", "result": 0.218}, {"measurement": "relative viability", "setting": "[5]; first compound 0.02 µM", "result": 0.248}, {"measurement": "relative viability", "setting": "[6]; first compound 0.0002 µM", "result": 0.443}, {"measurement": "relative viability", "setting": "[6]; first compound 0.000632 µM", "result": 0.562}, {"measurement": "relative viability", "setting": "[6]; first compound 0.002 µM", "result": 0.289}, {"measurement": "relative viability", "setting": "[6]; first compound 0.006325 µM", "result": 0.178}, {"measurement": "relative viability", "setting": "[6]; first compound 0.02 µM", "result": 0.186}, {"measurement": "relative viability", "setting": "[7]; first compound 0.0002 µM", "result": 0.718}, {"measurement": "relative viability", "setting": "[7]; first compound 0.000632 µM", "result": 0.706}, {"measurement": "relative viability", "setting": "[7]; first compound 0.002 µM", "result": 0.433}, {"measurement": "relative viability", "setting": "[7]; first compound 0.006325 µM", "result": 0.316}, {"measurement": "relative viability", "setting": "[7]; first compound 0.02 µM", "result": 0.272}, {"measurement": "relative viability", "setting": "[8]; first compound 0.0002 µM", "result": 0.672}, {"measurement": "relative viability", "setting": "[8]; first compound 0.000632 µM", "result": 0.607}, {"measurement": "relative viability", "setting": "[8]; first compound 0.002 µM", "result": 0.35}, {"measurement": "relative viability", "setting": "[8]; first compound 0.006325 µM", "result": 0.272}, {"measurement": "relative viability", "setting": "[8]; first compound 0.02 µM", "result": 0.128}, {"measurement": "relative viability", "setting": "[9]; first compound 0.0002 µM", "result": 0.533}, {"measurement": "relative viability", "setting": "[9]; first compound 0.000632 µM", "result": 0.591}, {"measurement": "relative viability", "setting": "[9]; first compound 0.002 µM", "result": 0.269}, {"measurement": "relative viability", "setting": "[9]; first compound 0.006325 µM", "result": 0.294}, {"measurement": "relative viability", "setting": "[9]; first compound 0.02 µM", "result": 0.16}]}
{"molecule": "CC(=O)O[C@@]12CO[C@@H]1C[C@H](O)[C@@]1(C)C(=O)[C@H](O)C3=C(C)[C@@H](OC(=O)[C@H](O)[C@@H](NC(=O)OC(C)(C)C)c4ccccc4)C[C@@](O)([C@@H](OC(=O)c4ccccc4)[C@H]21)C3(C)C", "note": "[Docetaxel] + Cc1cc(Nc2cc(N3CCN(C)CC3)nc(Sc3ccc(NC(=O)C4CC4)cc3)n2)n[nH]1 [Tozasertib] (partner 0.1 µM)", "values": [{"measurement": "relative viability", "setting": "[1]; first compound 0.0002 µM", "result": 0.453}, {"measurement": "relative viability", "setting": "[1]; first compound 0.000632 µM", "result": 0.367}, {"measurement": "relative viability", "setting": "[1]; first compound 0.002 µM", "result": 0.409}, {"measurement": "relative viability", "setting": "[1]; first compound 0.006325 µM", "result": 0.42}, {"measurement": "relative viability", "setting": "[1]; first compound 0.02 µM", "result": 0.377}, {"measurement": "relative viability", "setting": "[2]; first compound 0.0002 µM", "result": 0.525}, {"measurement": "relative viability", "setting": "[2]; first compound 0.000632 µM", "result": 0.403}, {"measurement": "relative viability", "setting": "[2]; first compound 0.002 µM", "result": 0.279}, {"measurement": "relative viability", "setting": "[2]; first compound 0.006325 µM", "result": 0.278}, {"measurement": "relative viability", "setting": "[2]; first compound 0.02 µM", "result": 0.197}, {"measurement": "relative viability", "setting": "[3]; first compound 0.0002 µM", "result": 0.785}, {"measurement": "relative viability", "setting": "[3]; first compound 0.000632 µM", "result": 0.45}, {"measurement": "relative viability", "setting": "[3]; first compound 0.002 µM", "result": 0.359}, {"measurement": "relative viability", "setting": "[3]; first compound 0.006325 µM", "result": 0.354}, {"measurement": "relative viability", "setting": "[3]; first compound 0.02 µM", "result": 0.237}, {"measurement": "relative viability", "setting": "[4]; first compound 0.0002 µM", "result": 0.644}, {"measurement": "relative viability", "setting": "[4]; first compound 0.000632 µM", "result": 0.592}, {"measurement": "relative viability", "setting": "[4]; first compound 0.002 µM", "result": 0.604}, {"measurement": "relative viability", "setting": "[4]; first compound 0.006325 µM", "result": 0.515}, {"measurement": "relative viability", "setting": "[4]; first compound 0.02 µM", "result": 0.586}, {"measurement": "relative viability", "setting": "[5]; first compound 0.0002 µM", "result": 0.449}, {"measurement": "relative viability", "setting": "[5]; first compound 0.000632 µM", "result": 0.509}, {"measurement": "relative viability", "setting": "[5]; first compound 0.002 µM", "result": 0.28}, {"measurement": "relative viability", "setting": "[5]; first compound 0.006325 µM", "result": 0.195}, {"measurement": "relative viability", "setting": "[5]; first compound 0.02 µM", "result": 0.155}, {"measurement": "relative viability", "setting": "[6]; first compound 0.0002 µM", "result": 0.15}, {"measurement": "relative viability", "setting": "[6]; first compound 0.000632 µM", "result": 0.191}, {"measurement": "relative viability", "setting": "[6]; first compound 0.002 µM", "result": 0.195}, {"measurement": "relative viability", "setting": "[6]; first compound 0.006325 µM", "result": 0.159}, {"measurement": "relative viability", "setting": "[6]; first compound 0.02 µM", "result": 0.218}, {"measurement": "relative viability", "setting": "[7]; first compound 0.0002 µM", "result": 0.743}, {"measurement": "relative viability", "setting": "[7]; first compound 0.000632 µM", "result": 0.779}, {"measurement": "relative viability", "setting": "[7]; first compound 0.002 µM", "result": 0.664}, {"measurement": "relative viability", "setting": "[7]; first compound 0.006325 µM", "result": 0.481}, {"measurement": "relative viability", "setting": "[7]; first compound 0.02 µM", "result": 0.322}, {"measurement": "relative viability", "setting": "[8]; first compound 0.0002 µM", "result": 0.519}, {"measurement": "relative viability", "setting": "[8]; first compound 0.000632 µM", "result": 0.409}, {"measurement": "relative viability", "setting": "[8]; first compound 0.002 µM", "result": 0.224}, {"measurement": "relative viability", "setting": "[8]; first compound 0.006325 µM", "result": 0.212}, {"measurement": "relative viability", "setting": "[8]; first compound 0.02 µM", "result": 0.149}, {"measurement": "relative viability", "setting": "[9]; first compound 0.0002 µM", "result": 0.93}, {"measurement": "relative viability", "setting": "[9]; first compound 0.000632 µM", "result": 0.442}, {"measurement": "relative viability", "setting": "[9]; first compound 0.002 µM", "result": 0.41}, {"measurement": "relative viability", "setting": "[9]; first compound 0.006325 µM", "result": 0.295}, {"measurement": "relative viability", "setting": "[9]; first compound 0.02 µM", "result": 0.158}]}
